For one data set, the system named is diabetic rats. Particulars: cited from earlier work.
The next data set deals with rats. The conditions noted are these: systemic administration; cited from earlier work.
The target of a further data set is Human KLK1 (Homo sapiens (Human), UniProt P06870). As to the kind of experiment: Determination of the IC50 for KLK1. The class given is biochemical. Particulars: 25° C., substrate H-DVal-Leu-Arg-AFC. How it is done:
KLK1 inhibitory activity in vitro was determined using standard published methods (see e.g. Johansen et al., Int. J. Tiss. Reac. 1986, 8, 185; Shori et al., Biochem. Pharmacol., 1992, 43, 1209; Sturzebecher et al., Biol. Chem. Hoppe-Seyler, 1992, 373, 1025). Human KLK1 (Callbiochem) was incubated at 25° C. with the fluorogenic substrate H-DVal-Leu-Arg-AFC and various concentrations of the test compound. Residual enzyme activity (initial rate of reaction) was determined by measuring the change in optical absorbance at 410 nm and the IC50 value for the test compound was determined.

The next data set deals with Human FXIa (Homo sapiens (Human), UniProt P03951). The data set can be described thus: Determination of the % inhibition / IC50 for FXIa. The class given is biochemical. The conditions noted are these: 25° C., substrate Z-Gly-Pro-Arg-AFC.
The next data set addresses Human Factor XIIa (Homo sapiens (Human), UniProt P00748). The data set can be described thus: Determination of the IC50 for FXIIa. The class given is biochemical. Particulars: 25° C., substrate H-DPro-Phe-Arg-AFC. The protocol:
Factor XIIa inhibitory activity in vitro was determined using standard published methods (see e.g. Shori et al., Biochem. Pharmacol., 1992, 43, 1209; Baeriswyl et al., ACS Chem. Biol., 2015, 10 (8) 1861; Bouckaert et al., European Journal of Medicinal Chemistry 110 (2016) 181). Human Factor XIIa (Enzyme Research Laboratories) was incubated at 25° C. with the fluorogenic substrate H-DPro-Phe-Arg-AFC and various concentrations of the test compound. Residual enzyme activity (initial rate of reaction) was determined by measuring the […] and the IC50 value for the test compound was determined.

The target of another data set is trypsin. The data set can be described thus: Enzyme selectivity: trypsin. The class given is biochemical, human. The conditions noted are these: substrate at Km concentration.
Data set [1] can be described thus: Metabolic stability in human liver microsomes. The class given is in vitro ADME. Particulars: human liver microsomes 1 mg/mL, 5 μM test compound, 37° C. The protocol:
The metabolic stability was determined using standard published methods (Obach RS (1999) Drug Metab Dispos 27(11); 1350-135). Human liver microsomes (1 mg/mL; Corning) were incubated with 5 μM test compound at 37° C. on a shaking platform (150 rpm). Samples were taken at 0 and 60 min. The percentage test compound remaining at 60 minutes was determined by ratio of LCMS peak areas.

A further data set addresses plasmin (Homo sapiens (Human), UniProt P00747). The conditions noted are these: read-out: IC50 Plasmin; substrate at Km concentration.
Another data set concerns the target thrombin (Homo sapiens (Human), UniProt P00734). Particulars: read-out: IC50 Thrombin; substrate at Km concentration.
Data set [2] can be described thus: In vitro permeability, Caco-2 model. The class given is in vitro ADME. Particulars: human, apical to basolateral, 37° C. The protocol: In vitro permeability was determined using the Caco-2 model for oral absorption. The methodology was adapted from standard published methods (Wang Z, Hop C. E., Leung K. H. and Pang J. (2000) J Mass Spectrom 35(1); 71-76). The Caco-2 monolayers were established in a Biocoat™ HTS fibrillar collagen 24 well multiwell insert system (1.0 μm, PET membrane, Corning 354803) in which 200,000 cells were seeded into each insert and maintained over 3 days before being utilised in the permeability assay. For the assay, 50 μM test compound is added to the apical side of the inserts and incubated for 1 hour at 37° C. on a shaking platform (120 rpm). Apical to basolateral transport was determined by measuring the test article in both compartments by LCMS following the 1 hour incubation. The integrity of the Caco-2 monolayers was confirmed by two methods, (i) comparison of pre- and post-experiment transepithelial electrical resistance (TEER) and, (ii) assessment of Lucifer Yellow flux.

Data set [3] has as its system LPS-induced disseminated intravascular coagulation. Particulars: cited from earlier work.
The next data set relates to blood. Particulars: contacting blood with the inhibitor; cited from earlier work.
The test system of data set [4] is intrinsic pathway of coagulation. The conditions noted are these: in vitro; cited from earlier work.

Sequence of Human Factor XIIa (P00748 373-615): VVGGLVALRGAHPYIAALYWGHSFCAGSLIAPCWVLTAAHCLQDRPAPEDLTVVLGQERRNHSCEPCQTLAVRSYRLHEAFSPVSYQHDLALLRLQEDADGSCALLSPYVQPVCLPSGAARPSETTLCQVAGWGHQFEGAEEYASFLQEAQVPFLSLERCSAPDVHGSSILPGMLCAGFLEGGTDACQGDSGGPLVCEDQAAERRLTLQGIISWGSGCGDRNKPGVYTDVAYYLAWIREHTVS
Sequence of Human KLK1 (P06870 25-262): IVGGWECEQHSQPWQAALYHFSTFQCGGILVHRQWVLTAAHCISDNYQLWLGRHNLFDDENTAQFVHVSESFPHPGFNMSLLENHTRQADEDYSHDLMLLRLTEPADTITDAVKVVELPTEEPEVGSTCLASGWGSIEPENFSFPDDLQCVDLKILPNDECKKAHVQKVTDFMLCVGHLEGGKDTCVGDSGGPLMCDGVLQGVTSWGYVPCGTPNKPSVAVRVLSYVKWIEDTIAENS
Sequence of Human FXIa (P03951 388-625): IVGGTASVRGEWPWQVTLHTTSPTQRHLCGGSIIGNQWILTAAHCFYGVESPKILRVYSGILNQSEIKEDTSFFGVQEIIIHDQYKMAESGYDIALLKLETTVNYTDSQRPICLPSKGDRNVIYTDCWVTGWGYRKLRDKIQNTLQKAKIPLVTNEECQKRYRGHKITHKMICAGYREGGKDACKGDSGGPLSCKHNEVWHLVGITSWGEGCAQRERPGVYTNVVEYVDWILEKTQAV
Sequence of Human FXIa (P03951 19-387 partner): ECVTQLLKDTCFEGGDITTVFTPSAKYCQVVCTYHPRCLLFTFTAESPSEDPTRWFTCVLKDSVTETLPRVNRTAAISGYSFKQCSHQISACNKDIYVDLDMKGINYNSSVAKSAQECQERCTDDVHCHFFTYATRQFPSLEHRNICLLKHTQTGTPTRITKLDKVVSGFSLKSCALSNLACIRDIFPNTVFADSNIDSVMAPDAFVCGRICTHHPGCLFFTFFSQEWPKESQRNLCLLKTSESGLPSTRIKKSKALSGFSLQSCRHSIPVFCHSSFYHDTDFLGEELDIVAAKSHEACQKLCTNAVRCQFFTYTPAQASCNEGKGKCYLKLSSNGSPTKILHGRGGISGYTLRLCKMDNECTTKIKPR
Sequence of plasmin (P00747 581-810): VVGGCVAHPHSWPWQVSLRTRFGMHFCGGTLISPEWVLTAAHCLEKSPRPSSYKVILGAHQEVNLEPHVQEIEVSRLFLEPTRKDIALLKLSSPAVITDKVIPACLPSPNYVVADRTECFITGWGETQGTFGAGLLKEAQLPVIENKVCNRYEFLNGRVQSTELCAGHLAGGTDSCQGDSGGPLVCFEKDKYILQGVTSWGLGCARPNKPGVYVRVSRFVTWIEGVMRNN
Sequence of plasmin (P00747 97-580 partner): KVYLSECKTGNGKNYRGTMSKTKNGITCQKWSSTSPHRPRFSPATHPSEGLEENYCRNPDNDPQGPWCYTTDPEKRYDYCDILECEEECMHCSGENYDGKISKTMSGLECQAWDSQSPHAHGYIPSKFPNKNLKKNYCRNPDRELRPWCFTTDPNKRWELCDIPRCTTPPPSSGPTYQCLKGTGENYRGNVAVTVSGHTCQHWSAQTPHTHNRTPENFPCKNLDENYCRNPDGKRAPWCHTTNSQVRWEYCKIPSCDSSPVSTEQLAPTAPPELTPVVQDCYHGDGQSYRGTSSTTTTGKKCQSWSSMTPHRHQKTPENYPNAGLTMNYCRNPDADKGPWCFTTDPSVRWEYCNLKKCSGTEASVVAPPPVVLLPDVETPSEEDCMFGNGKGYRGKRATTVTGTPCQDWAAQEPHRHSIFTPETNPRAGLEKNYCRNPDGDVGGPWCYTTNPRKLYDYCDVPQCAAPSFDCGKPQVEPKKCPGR
Description for plasmin: (§1) Human serine protease enzymes plasmin, thrombin and trypsin were assayed for enzymatic activity using an appropriate fluorogenic substrate. Protease activity was measured by monitoring the accumulation of liberated fluorescence from the substrate over 5 minutes. The linear rate of fluorescence increase per minute was expressed as percentage (%) activity. The Km for the cleavage of each substrate was determined by standard transformation of the Michaelis-Menten equation.
Description for thrombin: as §1
Description for trypsin: as §1

`N=C(N)c1ccc(CNC(=O)c2cnn(Cc3ccccc3)c2)cc1` [ASP-440]: in the data set with diabetic rats, the “Effect on retinal vascular permeability and retinal blood flow abnormalities” value was “ameliorated both retinal vascular permeability and retinal blood flow abnormalities”. Besides, the Hematoma expansion result in the data set on rats is “reduced hematoma expansion”.
Consider `COCc1nn(Cc2ccc(Cn3cc(F)ccc3=O)cc2)cc1C(=O)NCc1nccc(OC)c1F` [Compound of Formula A, 1-({4-[(5-fluoro-2-oxopyridin-1-yl)methyl]phenyl}methyl)-N-[(3-fluoro-4-methoxypyridin-2-yl)methyl]-3-(methoxymethyl)pyrazole-4-carboxamide], for which the IC50 against Human KLK1, on Human FXIa, on Human Factor XIIa, against trypsin, at plasmin and on thrombin was > 40 µM throughout. The “% remaining at 60 minutes” value in data set [1] is recorded as 25%.
In the case of `COCc1nn(Cc2ccc(Cn3ccccc3=O)cc2)cc1C(=O)NCc1nccc(OC)c1F` [Example 41 of WO2016/083820, N-[(3-fluoro-4-methoxypyridin-2-yl)methyl]-3-(methoxymethyl)-1-({4-[(2-oxopyridin-1-yl)methyl]phenyl}methyl)pyrazole-4-carboxamide], the IC50 against Human KLK1, against Human FXIa and against Human Factor XIIa was > 40 µM in each case. Besides, the Papp at 1 h, 50 μM in data set [2] is 9 ×10⁻⁶ cm/s.
Take `Cl.NCC1CCC(C(=O)N[C@@H](Cc2ccccc2)C(=O)Nc2ccc(CC(=O)O)cc2)CC1` (stereo partly shown) [PKSI-527]: the “Effect on platelet count, fibrinogen level and FDP level” value in data set [3] is “significantly suppressed the decrease in platelet count and fibrinogen level as well as the increase in FDP level”.
In the case of Ecallantide, the “Activated clotting time (ACT)” value with blood is given as “increase in activated clotting time”. In addition, the “Contact activated induced coagulation” value in data set [4] is on record as “delay contact activated induced coagulation”.
